This passage reports chloramphenicol resistance phenotype and β-galactosidase activity results from patent US20050058665A1, “Identification of virulence determinants activators in prokaryotic pathogens” (Boston Medical Center Corporation, priority 1998, published 2005).

One data set has as its target T1, DtxR (Corynebacterium diphtheriae, UniProt P0DJL7).
T1 construct: expressed in transfected cells; host or cells: E. coli TOP10/λRS65T/pSC6/pRDA
T1 sequence (P0DJL7 1-226): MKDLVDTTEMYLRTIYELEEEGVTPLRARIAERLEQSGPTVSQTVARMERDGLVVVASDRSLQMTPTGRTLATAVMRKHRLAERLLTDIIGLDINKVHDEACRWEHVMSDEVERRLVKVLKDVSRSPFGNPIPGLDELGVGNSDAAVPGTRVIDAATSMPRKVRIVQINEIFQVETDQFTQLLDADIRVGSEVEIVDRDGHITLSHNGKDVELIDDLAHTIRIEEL
The experiment in a line: PSDT system, chloramphenicol resistance phenotype of the indicator strain. The data set is classed as cell-based. To be noted: E. coli TOP10/λRS65T/pSC6/pRDA; DP added to growth medium. From the text: Development of the PSDT System. The PSDT system, which consists of a lysogenic E. coli TOP1O host strain carrying the reporter gene cat on an integrated λ phage, λRS65T, and a set of detector plasmids, is illustrated in FIG. 1. Expression of cat on λRS65T is controlled by the tetA promoter/operator (tetAPO), and, in the absence of the tetracycline repressor (TetR), E. coli TOP10/λRS65T is resistant to chloramphenicol (Cm^R).
We next constructed the detector plasmid pSC6, which carries the tetR gene under the control of the diphtheria toxPO. When pSC6 is transformed into E. coli TOP10/λRS65T, the bacterial host strain becomes Cm-sensitive (Cm^S) by virtue of the constitutive expression of tetR, which recognizes and binds to the tetAO and represses cat gene expression. However, if a functional dtxR allele is introduced into the bacterial host on a second compatible plasmid, PRDA, the interaction between DtxR and the toxO will repress the expression of tetR, and the bacterial host, E. coli TOP10/λRS65T/pSC6/pRDA, then will regain its CM^rphenotype.

Another data set has as its system toxPO-lacZ. The experiment in a line: β-galactosidase assay in toxPO-lacZ reporter strain. The data set is classed as cell-based. To be noted: E. coli DH5α/λRS45 toxPO; LB broth, absence or presence of increasing concentrations of DP (up to 250 μM). The method, then: β-Galactosidase Assay. β-galactosidase activity was measured essentially as described by Miller (Miller, J. H. (1972) Experiments in Molecular Genetics (Cold Spring Harbor Lab. Press, Plainview, N.Y.)). In brief, 0.5 ml of an overnight culture at ^A600 of =1.0 were lysed by the addition of lysis mix (chloroform:10% SDS, 2:1), vortexing the mixture for 10 sec and transferring 200 μl to 800 ul lacZ buffer (60 mM Na2HPO4/40 mM NaH2PO4/10 mM KCl/1 mM MgSO4/50 mM β-mercaptoethanol). The reaction was initiated by adding 200 μl of o-nitrophenyl β-D-galactopyranoside (Sigma) (4 mg/ml). After incubation at room temperature (5 min-1 hr), the reaction was stopped by the addition of 0.5 ml of 1M sodium carbonate. Absorbance was measured at 420 and 550 nm, and β-galactosidase units were calculated according to Miller, supra.
The resulting plasmids were designated pDM2, pDM3, pDM11, and pDM5, respectively. The pDM series of plasmids then were transformed individually into E. coli DH5α/λRS45 toxPO. This reporter strain carries a transcriptional fusion in which the lacZ gene is under the control of the diphtheria toxPO, toxPO-lacZ, and, as a result, the synthesis of β-galactosidase is regulated by their respective dtxR gene products. Individual strains were grown in LB broth supplemented with appropriate antibiotics in either the absence or presence of increasing concentrations of DP. […]

Consider `c1ccc(-c2ccccn2)nc1` [DP, 2,2′-dipyridyl], for which the chloramphenicol resistance phenotype result at DtxR was “phenotypic conversion from Cm^R to Cm^S”.

B1: wild-type DtxR (protein, UniProt P0DJL7 1-226, looked up)
Diphtheria toxin repressor: MKDLVDTTEMYLRTIYELEEEGVTPLRARIAERLEQSGPTVSQTVARMERDGLVVVASDRSLQMTPTGRTLATAVMRKHRLAERLLTDIIGLDINKVHDEACRWEHVMSDEVERRLVKVLKDVSRSPFGNPIPGLDELGVGNSDAAVPGTRVIDAATSMPRKVRIVQINEIFQVETDQFTQLLDADIRVGSEVEIVDRDGHITLSHNGKDVELIDDLAHTIRIEEL
Turning to B1, the β-galactosidase activity entry in the data set on toxPO-lacZ is reported as “β-galactosidase activity increases”.
